# Assay results published in patent publication US20250263415A1, “TERTIARY AMIDE DERIVATIVES SUBSTITUTED WITH 4-MEMBERED RING STRUCTURE” (Sumitomo Pharma Co., Ltd., priority 2024, published 2025).
# Columns and labels:
# G-401 cells = assay: Cell proliferation inhibition experiment using G-401 cells; type: cell-based
# Description: G-401 cells (derived from malignant rhabdoid tumor) were obtained from the American Type Culture Collection (ATCC). G-401 cells were cultured in McCoy's 5A medium containing 10% fetal bovine serum and 1% penicillin/streptomycin under conditions of 37° C. and 5% CO2.
# 500 cells per well were seeded in a 384-well plate. One day after seeding, Examples 1 to 35 were added so that the final concentration of DMSO was 0.1%, and the cells were cultured for 3 days. After the culture was completed, the cell viability was measured using CellTiter-Glo Luminescent Cell Viability Assay (Promega, G7570).
# recombinant p300 = recombinant p300 (Homo sapiens (Human), UniProt Q09472); assay: HAT activity inhibition experiment (SensoLyte HAT(p300) Assay Kit); type: biochemical
# Sequence of recombinant p300 (Q09472 whole entry): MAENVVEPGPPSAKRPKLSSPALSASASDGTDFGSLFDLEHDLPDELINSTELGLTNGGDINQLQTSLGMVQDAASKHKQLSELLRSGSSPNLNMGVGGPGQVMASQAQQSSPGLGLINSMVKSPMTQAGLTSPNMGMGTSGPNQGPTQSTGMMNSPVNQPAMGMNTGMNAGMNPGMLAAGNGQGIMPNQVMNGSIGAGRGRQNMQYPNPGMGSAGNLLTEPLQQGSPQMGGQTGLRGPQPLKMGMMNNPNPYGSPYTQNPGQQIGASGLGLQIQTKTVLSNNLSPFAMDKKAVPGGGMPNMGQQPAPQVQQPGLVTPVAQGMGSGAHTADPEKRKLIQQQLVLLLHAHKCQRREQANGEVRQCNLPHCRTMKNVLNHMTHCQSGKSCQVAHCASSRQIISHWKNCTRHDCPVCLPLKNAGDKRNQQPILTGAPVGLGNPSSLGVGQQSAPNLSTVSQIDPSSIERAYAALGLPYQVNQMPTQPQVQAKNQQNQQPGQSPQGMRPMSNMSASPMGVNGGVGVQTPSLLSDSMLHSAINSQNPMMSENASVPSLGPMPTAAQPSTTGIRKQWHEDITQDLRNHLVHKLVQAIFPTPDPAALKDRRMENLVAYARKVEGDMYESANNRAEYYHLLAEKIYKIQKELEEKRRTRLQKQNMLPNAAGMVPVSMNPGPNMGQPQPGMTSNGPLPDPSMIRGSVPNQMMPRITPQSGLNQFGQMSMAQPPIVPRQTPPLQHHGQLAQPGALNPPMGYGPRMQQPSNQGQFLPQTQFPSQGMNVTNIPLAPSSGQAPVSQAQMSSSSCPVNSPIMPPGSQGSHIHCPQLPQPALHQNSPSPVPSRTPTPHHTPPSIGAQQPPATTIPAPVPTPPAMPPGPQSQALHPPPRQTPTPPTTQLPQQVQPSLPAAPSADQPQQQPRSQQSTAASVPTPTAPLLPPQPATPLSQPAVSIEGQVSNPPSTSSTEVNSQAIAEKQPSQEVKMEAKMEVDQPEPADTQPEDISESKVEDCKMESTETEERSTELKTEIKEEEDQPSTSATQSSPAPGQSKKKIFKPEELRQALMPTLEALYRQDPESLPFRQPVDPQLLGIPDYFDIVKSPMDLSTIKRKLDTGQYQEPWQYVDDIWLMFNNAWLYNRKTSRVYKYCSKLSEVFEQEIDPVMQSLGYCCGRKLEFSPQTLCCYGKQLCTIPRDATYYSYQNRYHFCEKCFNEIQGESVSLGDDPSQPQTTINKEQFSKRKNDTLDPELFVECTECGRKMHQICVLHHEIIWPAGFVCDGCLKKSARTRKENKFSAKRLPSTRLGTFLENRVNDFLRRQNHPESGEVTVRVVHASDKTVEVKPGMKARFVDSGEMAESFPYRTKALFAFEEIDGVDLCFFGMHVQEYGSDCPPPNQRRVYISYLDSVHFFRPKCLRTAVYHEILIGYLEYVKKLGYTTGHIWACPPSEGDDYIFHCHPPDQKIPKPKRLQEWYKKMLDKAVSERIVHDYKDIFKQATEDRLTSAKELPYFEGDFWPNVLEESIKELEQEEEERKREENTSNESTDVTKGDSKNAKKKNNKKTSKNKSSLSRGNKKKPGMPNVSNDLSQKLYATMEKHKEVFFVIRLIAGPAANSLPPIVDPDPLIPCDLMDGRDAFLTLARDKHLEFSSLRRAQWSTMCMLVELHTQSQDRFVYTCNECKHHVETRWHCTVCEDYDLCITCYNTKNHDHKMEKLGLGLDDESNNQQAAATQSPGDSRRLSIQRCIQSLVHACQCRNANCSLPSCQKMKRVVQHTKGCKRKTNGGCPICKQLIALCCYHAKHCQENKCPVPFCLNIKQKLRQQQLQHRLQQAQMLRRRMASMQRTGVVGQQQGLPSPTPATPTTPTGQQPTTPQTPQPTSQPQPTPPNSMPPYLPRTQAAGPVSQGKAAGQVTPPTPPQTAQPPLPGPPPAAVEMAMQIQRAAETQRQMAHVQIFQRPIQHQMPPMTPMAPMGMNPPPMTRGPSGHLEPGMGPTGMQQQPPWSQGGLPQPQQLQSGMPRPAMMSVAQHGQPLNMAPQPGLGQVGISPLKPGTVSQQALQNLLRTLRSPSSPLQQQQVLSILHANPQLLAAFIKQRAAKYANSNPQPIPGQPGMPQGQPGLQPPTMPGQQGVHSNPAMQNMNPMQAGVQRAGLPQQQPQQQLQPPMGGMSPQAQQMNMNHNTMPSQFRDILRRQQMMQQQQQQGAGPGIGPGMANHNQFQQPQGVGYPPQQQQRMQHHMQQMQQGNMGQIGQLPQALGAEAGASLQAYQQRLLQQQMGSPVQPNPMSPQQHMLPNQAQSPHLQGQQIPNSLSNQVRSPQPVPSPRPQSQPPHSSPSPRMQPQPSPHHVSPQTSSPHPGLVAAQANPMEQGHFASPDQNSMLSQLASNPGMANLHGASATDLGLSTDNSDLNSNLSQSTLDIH
# Description: The HAT activity inhibitory ability of HAT inhibitors was evaluated using SensoLyte HAT(p300) Assay Kit (ANASPEC, AS-72172). Specifically, 7.5 μL of the compound of Examples […] diluted with assay buffer was added to 7.5 μL of recombinant p300 solution diluted 10 times with assay buffer, and the mixture was incubated at room temperature for 10 minutes. 7.5 μL of acetyl CoA solution diluted 10 times with assay buffer and 15 μL of histone H3 peptide diluted 10 times with assay buffer were added thereto, and the mixture was incubated at 37° C. for 30 minutes. 37.5 μL of Stop Solution was added to stop the reaction. 75 μL of p300 Developer solution diluted 50 times with assay buffer was added, and the mixture was incubated at room temperature for 30 minutes under light-shielded conditions. The fluorescence at 513 nm when irradiated with 389 nm excitation light was measured using a multiplate reader.
# G-401 xenograft [1] = assay: Drug efficacy evaluation by oral administration using G-401 xenograft model mice; type: in vivo
# Description: (§1) G-401 cells (ATCC) were intradermally transplanted into 4-7-week-old BALB/cAnNCrj-nu/nu mice (CAnN.Cg-Foxnl/CrlCrlj, Jackson Laboratory Japan) at 5×10^5 cells/mouse. After confirming the engraftment of G-401 cells 10-40 days after transplantation, the test compound suspended in a solvent such as 0.5% methylcellulose solution was orally administered twice a day at a dose of 1-100 mg/kg. The tumor volume was measured over time from the start of administration, and the effect of tumor volume reduction by administration of the test compound was evaluated. The tumor volume can be calculated from the following equation using the minor axis and major axis of the tumor measured with an electronic caliper (Mitutoyo).
# A control administration group administered with only a solvent such as 0.5% methylcellulose solution and a test compound administration group were compared, and the antitumor effect was evaluated by calculating T/C from the following equation.
# hSERT = hSERT (Homo sapiens (Human), UniProt P31645); assay: Serotonin receptor inhibitory activity evaluation (binding assay, HEK293/hSERT membranes); details: off-target
# Sequence of hSERT (P31645 whole entry): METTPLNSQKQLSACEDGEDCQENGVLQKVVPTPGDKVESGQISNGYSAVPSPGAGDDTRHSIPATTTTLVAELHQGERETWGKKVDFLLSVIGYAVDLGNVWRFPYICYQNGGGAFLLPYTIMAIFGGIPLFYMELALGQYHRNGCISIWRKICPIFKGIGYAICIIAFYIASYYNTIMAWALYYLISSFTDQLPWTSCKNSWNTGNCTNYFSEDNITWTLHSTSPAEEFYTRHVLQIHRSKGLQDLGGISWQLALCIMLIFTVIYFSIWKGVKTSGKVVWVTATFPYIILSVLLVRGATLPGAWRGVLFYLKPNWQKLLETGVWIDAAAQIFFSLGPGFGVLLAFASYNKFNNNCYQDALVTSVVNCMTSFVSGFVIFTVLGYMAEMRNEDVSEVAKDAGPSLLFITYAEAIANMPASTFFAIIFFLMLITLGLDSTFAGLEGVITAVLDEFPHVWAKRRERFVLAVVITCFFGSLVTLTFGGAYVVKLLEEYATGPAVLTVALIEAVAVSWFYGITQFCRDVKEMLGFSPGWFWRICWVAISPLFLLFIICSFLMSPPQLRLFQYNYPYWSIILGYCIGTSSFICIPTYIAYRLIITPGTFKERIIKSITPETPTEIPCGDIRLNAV
# Description: The binding evaluation assay was outsourced to Eurofins. Specifically, HEK293/hSERT cells were homogenized in a buffer consisting of 100 mmol/L NaCl, 1 μmol/L Leupeptin, 10 μmol/L PMSF, and 50 mmol/L Tris-HCl (pH7.4). The membrane pellet obtained by centrifugation was resuspended in an incubation buffer consisting of 50 mmol/L Tris-HCl (pH 7.4), 120 mmol/L NaCl, and 5 mmol/L KCl to prepare a membrane preparation. The test compound (1-10 μmol/L DMSO solution), the membrane preparation, and 0.4 nmol/L [^3H]Paroxetin were mixed and incubated at 25° C. for 60 minutes. The cell membrane-[^3H]Paroxetin complex was bound to a GF/B filter mat by vacuum filtration and washed with 50 mmol/L Tris-HCl (pH 7.4). The effect on the receptor was assessed by measuring radioactivity using a scintillation counter.
# [2] = Pharmacokinetic study in mice; type: in vivo
# Description: The test compound was administered to 7-week-old female BALE/c (BALB/cAnN CrlCrlj) mice intravenously (dosage: 1 mg/kg) in a 50% PEG solution (0.01 mol/L HCl) or orally (dosage: 10 mg/kg) in a 0.5% methylcellulose aqueous solution, and blood was collected at the following times: • Intravenous administration: 5 min, 15 min, 30 min, 1 hr, 2 hr, 4 hr, 6 hr, and 24 hr after administration • Oral administration: 15 min, 30 min, 1 hr, 2 hr, 4 hr, 6 hr, and 24 hr after administration
# The collected blood was centrifuged at 3000 rpm×10 min using a refrigerated centrifuge set at 4° C., and the obtained plasma was measured by LC-MS. A calibration curve was prepared from the value (peak ratio) obtained by dividing the peak area of the test substance by the peak area of the internal standard substance in MS and the concentration of the plasma calibration curve sample. The concentration in the sample was calculated from the peak ratio and the calibration curve of each sample.
# hDAT = hDAT (Homo sapiens (Human), UniProt Q01959); assay: Dopamine receptor inhibitory activity evaluation (binding assay, CHO-S/hDAT membranes); details: off-target
# Sequence of hDAT (Q01959 whole entry): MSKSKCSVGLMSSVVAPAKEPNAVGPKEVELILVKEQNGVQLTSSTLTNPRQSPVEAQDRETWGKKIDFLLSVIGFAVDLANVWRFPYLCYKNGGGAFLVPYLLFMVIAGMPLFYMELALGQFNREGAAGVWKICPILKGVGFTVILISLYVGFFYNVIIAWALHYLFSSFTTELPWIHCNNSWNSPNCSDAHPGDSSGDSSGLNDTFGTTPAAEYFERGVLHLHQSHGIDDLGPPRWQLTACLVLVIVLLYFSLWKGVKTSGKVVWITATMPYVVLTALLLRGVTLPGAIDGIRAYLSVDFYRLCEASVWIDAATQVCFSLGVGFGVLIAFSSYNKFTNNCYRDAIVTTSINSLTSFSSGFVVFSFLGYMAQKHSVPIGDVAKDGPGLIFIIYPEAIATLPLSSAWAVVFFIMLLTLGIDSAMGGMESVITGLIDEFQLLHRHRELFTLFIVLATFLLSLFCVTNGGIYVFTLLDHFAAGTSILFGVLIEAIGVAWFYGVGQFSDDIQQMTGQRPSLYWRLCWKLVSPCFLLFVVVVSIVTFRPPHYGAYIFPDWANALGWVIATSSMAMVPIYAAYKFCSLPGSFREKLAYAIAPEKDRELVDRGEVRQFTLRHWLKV
# Description: The binding evaluation assay was outsourced to Eurofins. Specifically, CHO—S/hDAT cells were homogenized in an incubation buffer consisting of 50 mmol/L Tris-HCl, pH 7.4, 100 mmol/L NaCl, 1 μmol/L Leupeptin, and 10 μmol/L PMSF. The membrane pellet obtained by centrifugation was resuspended in the incubation buffer to prepare a membrane preparation. The test compound (1-10 μmol/L DMSO solution), the membrane preparation, and 0.15 nmol/L […] were mixed and incubated at 4° C. for 180 minutes. The cell membrane-[^125I]RTI-55 complex was bound to a GF/B filter mat by vacuum filtration and washed with 50 mmol/L Tris-HCl, pH 7.4. The effect on the receptor was assessed by measuring radioactivity using a scintillation counter.
# G-401 xenograft [3] = assay: Drug efficacy evaluation by intravenous administration using G-401 xenograft mice model; type: in vivo; details: G-401 xenograft model
# Description: as §1, with “as 10 mmol/L glycine buffer” for “as 0.5% methylcellulose”, “solution (pH 2.0)” for “solution”, “was” for “was orally”, “administered via the tail vein at least once” for “administered twice”, “a week” for “a day”, “of 0.015-20” for “of 1-100”
# A control administration group administered with only a solvent such as 10 mmol/L glycine buffer solution (pH 2.0) and a test compound administration group were compared, and the antitumor effect was evaluated by calculating T/C from the following equation.
# Solubility test = type: physicochemical; details: pH 2.0 and pH 3.0 buffers
# Description: The solubility was measured for Examples 7, 10, 20, 23, 24, and 30 to 34, Comparative Example 1, and Comparative Example 2. The test compound was added to 10 mmol/L glycine buffer (pH 2.0) and 10 mmol/L citrate buffer (pH 3.0), and the mixture was stored in a thermostatic chamber at 5° C. After standing overnight, the mixture was filtered through a membrane filter, and the concentration of the filtrate was measured by HPLC.
# The HPLC measurement conditions are as follows.
# HPLC conditions • Column: Acquity UPLC BEH C18, 1.7 μm, 50×2.1 mm • Column temperature: 40° C. • Mobile phase: A: 0.1% trifluoroacetic acid-containing water • B: acetonitrile • A/B (min): 95/5 (0)→0/100 (3.5)→0/100 (4)→95/5 (4.01)→95/5 (5) • Flow rate: 0.8 mL/min • Detection: UV visible detector, measurement wavelength 254 nm • Injection volume: 5 μL or • Column: Acquity UPLC BEH C18, 1.7 μm, 50×2.1 mm • Column temperature: 40° C. • Mobile phase: A: 0.1% trifluoroacetic acid-containing water • B: acetonitrile • A/B (min): • 80/20 (0)→40/60 (3.0)→0/100 (3.5)→0/100 (4)→80/20 (4.01)→80/20 (5) • Flow rate: 0.8 mL/min • Detection: UV visible detector, measurement wavelength 254 nm • Injection volume: 2 μL or • Column: Acquity UPLC BEH C18, 1.7 μm, 50×2.1 mm • Column temperature: 40° C. • Mobile phase: A: 0.1% trifluoroacetic acid-containing water • B: acetonitrile • A/B (min): • 80/20 (0)→40/60 (3.0)→0/100 (3.5)→0/100 (4)→100/0 (4.01)→100/0 (5) • Flow rate: 0.8 mL/min • Detection: UV visible detector, measurement wavelength 254 nm • Injection volume: 3 μL
Compound,Cell proliferation inhibitory effect on G-401 cells (in words) (G-401 cells),HAT activity inhibition (in words) (recombinant p300),"Antitumor effect, oral administration (in words) (G-401 xenograft [1])",Inhibitory effect on serotonin receptors (in words) (hSERT),Pharmacokinetics (in words) [2],Inhibitory effect on dopamine receptors (in words) (hDAT),"Antitumor effect, intravenous administration (in words) (G-401 xenograft [3])",Solubility (in words) (Solubility test)
"CN1CC(N(Cc2ccc(F)cc2)C(=O)CN2C(=O)N[C@]3(C[C@@H](F)c4cc(-c5cnn(C)c5F)ccc43)C2=O)(C(F)(F)F)C1 [Example 15, 2-[(1′S,3′R)-3′-fluoro-5′-(5-fluoro-1-methyl-1H-pyrazol-4-yl)-2,5-dioxo-2′,3′-dihydrospiro[imidazolidine-4,1′-inden]-1-yl]-N-[(4-fluorophenyl)methyl]-N-[1-methyl-3-(trifluoromethyl)azetidin-3-yl]acetamide]",strong cell proliferation inhibitory effect,strong inhibition of HAT activity,–,–,–,–,–,–
"CN1CC(N(Cc2ccc(F)cn2)C(=O)CN2C(=O)N[C@]3(C[C@@H](F)c4cc(-c5cnn(C)c5)ccc43)C2=O)(C(F)(F)F)C1 [Example 20, 2-[(1′S,3′R)-3′-fluoro-5′-(1-methyl-1H-pyrazol-4-yl)-2,5-dioxo-2′,3′-dihydrospiro[imidazolidine-4,1′-inden]-1-yl]-N-[(5-fluoropyridin-2-yl)methyl]-N-[1-methyl-3-(trifluoromethyl)azetidin-3-yl]acetamide]",strong cell proliferation inhibitory effect,–,strong antitumor effects,did not show strong inhibitory activity,excellent pharmacokinetics,did not show strong inhibitory activity,strong antitumor effects,high solubility
"O=C1N[C@]2(C[C@@H](F)c3cc(-c4cnn(C5CCN(C6COC6)CC5)c4)ccc32)C(=O)N1CC(=O)N(Cc1ccc(F)cn1)C1(C(F)(F)F)COC1 [Example 23, 2-[(1′S,3′R)-3′-fluoro-5′-{1-[1-(oxetan-3-yl)piperidin-4-yl]-1H-pyrazol-4-yl}-2,5-dioxo-2′,3′-dihydrospiro[imidazolidine-4,1′-inden]-1-yl]-N-[(5-fluoropyridin-2-yl)methyl]-N-[3-(trifluoromethyl)oxetan-3-yl]acetamide]",–,–,strong antitumor effects,did not show strong inhibitory activity,excellent pharmacokinetics,did not show strong inhibitory activity,strong antitumor effects,high solubility
"CN1CC(N(Cc2ccc(F)cc2)C(=O)CN2C(=O)N[C@]3(C[C@@H](F)c4cc(-c5cnn(C)c5)ccc43)C2=O)(C(F)(F)F)C1 [Example 10, 2-[(1′S,3′R)-3′-fluoro-5′-(1-methyl-1H-pyrazol-4-yl)-2,5-dioxo-2′,3′-dihydrospiro[imidazolidine-4,1′-inden]-1-yl]-N-[(4-fluorophenyl)methyl]-N-[1-methyl-3-(trifluoromethyl)azetidin-3-yl]acetamide]",–,–,strong antitumor effects,did not show strong inhibitory activity,excellent pharmacokinetics,did not show strong inhibitory activity,strong antitumor effects,high solubility
"CN1CC(N(Cc2ccc(F)cc2)C(=O)CN2C(=O)N[C@]3(C[C@@H](F)c4cc(-c5cn(C)nc5F)ccc43)C2=O)(C(F)(F)F)C1 [Example 17, 2-[(1′S,3′R)-3′-fluoro-5′-(3-fluoro-1-methyl-1H-pyrazol-4-yl)-2,5-dioxo-2′,3′-dihydrospiro[imidazolidine-4,1′-inden]-1-yl]-N-[(4-fluorophenyl)methyl]-N-[1-methyl-3-(trifluoromethyl)azetidin-3-yl]acetamide]",strong cell proliferation inhibitory effect,strong inhibition of HAT activity,–,–,–,–,–,–
